The experiment concerns the target T1, α1β3 GABAA receptor, 3α1:2β3 stoichiometry (α1 + β3, 30:1) (Homo sapiens, UniProt P14867+P28472).
T1 construct: gene GABRA1; full-length free subunits, cRNA ratio α1:β3 30:1, Xenopus laevis oocytes; heteropentamer; 'Human' printed for α1 and γ2, β3 implied by same sentence
T1 sequence (P14867 28-456): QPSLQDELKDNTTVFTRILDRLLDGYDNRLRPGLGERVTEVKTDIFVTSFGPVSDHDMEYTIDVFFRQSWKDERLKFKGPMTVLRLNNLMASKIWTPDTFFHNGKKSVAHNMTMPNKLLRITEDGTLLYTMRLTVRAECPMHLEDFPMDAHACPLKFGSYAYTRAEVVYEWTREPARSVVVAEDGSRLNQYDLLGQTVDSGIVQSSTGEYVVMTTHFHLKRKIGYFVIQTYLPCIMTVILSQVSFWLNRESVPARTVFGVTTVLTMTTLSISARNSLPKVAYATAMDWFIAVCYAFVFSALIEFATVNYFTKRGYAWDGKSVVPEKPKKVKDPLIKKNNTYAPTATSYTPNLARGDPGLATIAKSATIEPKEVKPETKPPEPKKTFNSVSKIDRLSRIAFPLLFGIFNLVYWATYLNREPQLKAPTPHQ
T1 sequence (P28472 26-473): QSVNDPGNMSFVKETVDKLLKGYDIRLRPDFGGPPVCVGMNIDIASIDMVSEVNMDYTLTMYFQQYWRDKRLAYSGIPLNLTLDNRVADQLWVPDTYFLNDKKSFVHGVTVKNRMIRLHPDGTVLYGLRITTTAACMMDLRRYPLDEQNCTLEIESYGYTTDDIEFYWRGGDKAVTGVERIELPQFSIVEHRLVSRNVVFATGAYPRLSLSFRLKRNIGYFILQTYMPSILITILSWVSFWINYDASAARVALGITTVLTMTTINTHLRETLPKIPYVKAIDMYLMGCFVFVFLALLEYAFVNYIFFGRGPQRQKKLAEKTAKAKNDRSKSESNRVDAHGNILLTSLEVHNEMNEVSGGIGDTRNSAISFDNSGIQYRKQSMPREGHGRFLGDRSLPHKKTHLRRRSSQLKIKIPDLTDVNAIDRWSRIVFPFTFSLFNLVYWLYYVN
Kind of experiment: two-electrode voltage clamp, Xenopus oocytes. It counts as cell-based. Conditions: read-out: % inhibition at 1 μM. For orientation: In two-electrode clamp one electrode senses voltage and the other passes current.

What is called inhibition is the change of the read-out against control, counted positive when it falls.

In the case of `CCOC(=O)c1ncn2c1CN(C)C(=O)c1cc(F)ccc1-2` [flumazenil, Ethyl 8-fluoro-5-methyl-6-oxo-5,6-dihydro-4H-benzo[f]imidazo[1,5-a][1,4]diazepine-3-carboxylate], the inhibition at 1 µM was 95%.

These data come from paper PMC4921915 (Scientific Reports, 2016).
